# Results as given in article PMC6923382, “Small molecules that inhibit TNF signalling by stabilising an asymmetric form of the trimer” (Nature Communications, 2019).
# Read-outs that look alike come from different tables or passages of the source.
# Assays:
# [1] = Blood exposure of UCB-9260 in the mouse models; type: in vivo; settings: mouse, blood
# TNF [2] = molecular target: T1, TNF (Homo sapiens, UniProt P01375); assay: TNF L929 cytotoxicity assay, human TNF; type: cell-based; parameters: stabilise an asymmetrical form of the soluble TNF trimer
# T1 sequence (P01375 77-233 limits assumed): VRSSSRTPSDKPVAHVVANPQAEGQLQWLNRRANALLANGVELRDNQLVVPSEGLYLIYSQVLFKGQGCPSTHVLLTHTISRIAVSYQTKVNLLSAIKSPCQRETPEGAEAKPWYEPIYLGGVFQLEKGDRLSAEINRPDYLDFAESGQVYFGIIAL
# Experimental: TNF (human or mouse) kills L929 cells which have been compromised by incubation with a sub-lethal concentration of actinomycin D, and this effect is inhibited with TNF biologics. Compounds were titrated in DMSO, and then pre-incubated with human or mouse TNF for 1 h. […] L929 cytotoxicity was measured by the addition of CellTitreGlo (Promega). Luminescence was measured after an incubation of at least 20 min in the dark. Percentage inhibition was calculated between unstimulated wells (maximum signal), and wells with TNF, DMSO and actinomycin D (minimum signal). The IC50 was calculated as the point of inflexion for a 4PL fitted curve. Mean IC50s are reported as a mean of at least two experiments.
# TNF [3] = molecular target: T1, TNF; assay: Biacore binding with and without non-ionic detergent; parameters: stabilise an asymmetrical form of the soluble TNF trimer; settings: 0.01% v/v Triton X-100 and 0.025% v/v Tween-80; Biacore T200
# Experimental: Experiments to show any effect of addition of non-ionic detergent were performed on a Biacore, with human TNF on the solid phase and compounds in solution phase in the presence and absence of 0.01% v/v Triton X-100 and 0.025% v/v Tween-80.
# Three Biacore T200s were treated with sodium hypochlorite to remove any traces of detergent. Each machine was equilibrated in either HBS with no detergent (control), HBS:
# Tween-P80 (0.025% v/v) or HBS: Triton X-100 (0.01% v/v). Human TNF was tethered to ~ 2000 RU before equilibration in the equivalent control or detergent buffers plus 1% DMSO. […]
# were fitted to a BIAevaluation T200 1:1 algorithm and the fitted data shown. […]
smiles,measurement,setting,value
Cc1ccc(C)c(Cn2c(C(O)c3ccncc3)nc3ccc(-c4cnn(C)c4)cc32)c1 (stereo not shown) [UCB-9260],concentration at 0.5 h,"[1]; Balb/c, oral, 30 mg/kg, mouse TNF neutrophilia model, individual mice, read-out: Free exposure",254 nM
same,concentration at 0.5 h,"[1]; Balb/c, oral, 100 mg/kg, 100 mg/kg p.o., human TNF neutrophilia model, Fu 2.4%, read-out: Blood concentration 0.5h post dose (free)",716 ± 93 nM
same,concentration at 0.5 h,"[1]; Balb/c, oral, 100 mg/kg, 100 mg/kg p.o., human TNF neutrophilia model, mean n=3 ± s.e.m., read-out: Blood concentration 0.5h post dose total",29800 nM
same,concentration at 0.5 h,"[1]; Balb/c, oral, 100 mg/kg, 100 mg/kg p.o., mouse TNF neutrophilia model, Fu 2.4%, read-out: Blood concentration 0.5h post dose (free)",1350 nM
same,concentration at 0.5 h,"[1]; Balb/c, oral, 100 mg/kg, 100 mg/kg p.o., mouse TNF neutrophilia model, mean ± s.e.m., read-out: Blood concentration 0.5h post dose total",56100 nM
same,concentration at 0.5 h,"[1]; Balb/c, oral, 100 mg/kg, human TNF neutrophilia model, individual mice, 0.5h post dose, read-out: Total exposure",29100 nM
same,concentration at 0.5 h,"[1]; Balb/c, oral, 100 mg/kg, human TNF neutrophilia model, individual mice, read-out: Free exposure",886 nM
same,concentration at 0.5 h,"[1]; Balb/c, oral, 300 mg/kg, 300 mg/kg p.o., human TNF neutrophilia model, Fu 2.4%, read-out: Blood concentration 0.5h post dose (free)",1190 nM
same,concentration at 0.5 h,"[1]; Balb/c, oral, 300 mg/kg, 300 mg/kg p.o., human TNF neutrophilia model, mean n=3 ± s.e.m., read-out: Blood concentration 0.5h post dose total",49500 nM
same,concentration at 0.5 h,"[1]; Balb/c, oral, 300 mg/kg, 300 mg/kg p.o., mouse TNF neutrophilia model, Fu 2.4%, read-out: Blood concentration 0.5h post dose (free)",1270 nM
same,concentration at 0.5 h,"[1]; Balb/c, oral, 300 mg/kg, 300 mg/kg p.o., mouse TNF neutrophilia model, mean n=3 ± s.e.m., read-out: Blood concentration 0.5h post dose total",53000 nM
same,concentration at 0.5 h,"[1]; Balb/c, oral, 300 mg/kg, human TNF neutrophilia model, individual mice, 0.5h post dose, read-out: Total exposure",41500 nM
same,concentration at 0.5 h,"[1]; Balb/c, oral, 300 mg/kg, human TNF neutrophilia model, individual mice, read-out: Free exposure",1190 nM
same,concentration at 0.5 h,"[1]; Balb/c, oral, 300 mg/kg, mouse TNF neutrophilia model, individual mice, 0.5h post dose, read-out: Total exposure",63000 nM
same,concentration at 0.5 h,"[1]; Balb/c, oral, 300 mg/kg, mouse TNF neutrophilia model, individual mice, read-out: Free exposure",1170 nM
same,concentration at 1 h,"[1]; male, Balb/c, oral, 10 mg/kg, 10 mg/kg p.o., zymosan model, Fu 2.4%, read-out: Blood concentration 1h post dose (free)",2 ± 0.4 nM
same,concentration at 1 h,"[1]; male, Balb/c, oral, 10 mg/kg, 10 mg/kg p.o., zymosan model, mean n=8 ± s.e.m., read-out: Blood concentration 1h post dose (total)",86 ± 15 nM
same,concentration at 1 h,"[1]; male, Balb/c, oral, 30 mg/kg, 30 mg/kg p.o., zymosan model, Fu 2.4%, read-out: Blood concentration 1h post dose (free)",70 ± 7 nM
same,concentration at 1 h,"[1]; male, Balb/c, oral, 30 mg/kg, 30 mg/kg p.o., zymosan model, mean n=8 ± s.e.m., read-out: Blood concentration 1h post dose (total)",2900 nM
same,concentration at 1 h,"[1]; male, Balb/c, oral, 30 mg/kg, zymosan model, individual mice, read-out: free exposure 1h post dose",46.8 nM
same,concentration at 1 h,"[1]; male, Balb/c, oral, 30 mg/kg, zymosan model, individual mice, read-out: total exposure 1h post dose",1950 nM
same,concentration at 1 h,"[1]; male, Balb/c, oral, 100 mg/kg, 100 mg/kg p.o., zymosan model, Fu 2.4%, read-out: Blood concentration 1h post dose (free)",630 ± 98 nM
same,concentration at 1 h,"[1]; male, Balb/c, oral, 100 mg/kg, 100 mg/kg p.o., zymosan model, mean n=8 ± s.e.m., read-out: Blood concentration 1h post dose (total)",26300 nM
same,concentration at 1 h,"[1]; male, Balb/c, oral, 300 mg/kg, 300 mg/kg p.o., zymosan model, Fu 2.4%, read-out: Blood concentration 1h post dose (free)",677 ± 121 nM
same,concentration at 1 h,"[1]; male, Balb/c, oral, 300 mg/kg, 300 mg/kg p.o., zymosan model, mean n=8 ± s.e.m., read-out: Blood concentration 1h post dose (total)",28200 nM
same,concentration at 1 h,"[1]; 150 mg/kg, 150 mg/kg B.I.D., CAIA model, mean ± s.e.m., read-out: Blood concentration total, 1h post dose",17300 nM
same,concentration at 6 h,"[1]; 150 mg/kg, 150 mg/kg B.I.D., CAIA model, mean ± s.e.m., read-out: Blood concentration total, 6h post dose",9970 nM
same,concentration at 1 h,"[1]; 150 mg/kg, 150 mg/kg B.I.D., CAIA model, read-out: Blood concentration (free), 1h post dose",415 ± 100 nM
same,concentration at 6 h,"[1]; 150 mg/kg, 150 mg/kg B.I.D., CAIA model, read-out: Blood concentration (free), 6h post dose",239 ± 101 nM
same,concentration at 0.5 h,"[1]; oral, 10 mg/kg, 10 mg/kg p.o., human TNF neutrophilia model, Fu 2.4%, read-out: Blood concentration 0.5h post dose (free)",20 ± 4 nM
same,concentration at 0.5 h,"[1]; oral, 30 mg/kg, 30 mg/kg p.o., human TNF neutrophilia model, Fu 2.4%, read-out: Blood concentration 0.5h post dose (free)",203 ± 59 nM
same,concentration at 0.5 h,"[1]; oral, 30 mg/kg, 30 mg/kg p.o., human TNF neutrophilia model, mean n=3 ± s.e.m., read-out: Blood concentration 0.5h post dose total",8460 nM
same,Luminescence units,TNF [2]; compound -logM 4.6,12619 Luminescence units
same,Luminescence units,TNF [2]; compound -logM 5.08,13471 Luminescence units
same,Luminescence units,TNF [2]; compound -logM 5.56,13691 Luminescence units
same,Luminescence units,TNF [2]; compound -logM 6.03,12384 Luminescence units
same,Luminescence units,TNF [2]; compound -logM 6.51,8197 Luminescence units
same,Luminescence units,TNF [2]; compound -logM 6.99,7043 Luminescence units
same,Luminescence units,TNF [2]; compound -logM 7.46,6740 Luminescence units
same,Luminescence units,TNF [2]; compound -logM 7.94,4803 Luminescence units
same,Luminescence units,TNF [2]; compound -logM 8.42,3698 Luminescence units
same,Luminescence units,TNF [2]; compound -logM 8.9,3202 Luminescence units
same,effect of non-ionic detergents on binding to human TNF,TNF [3],does not alter the binding
